For 15 compounds, IC50 and Activity results are on record in ChEMBL document CHEMBL6078642, “Design, Synthesis, and Activity Evaluation of BRD4 PROTAC Based on Alkenyl Oxindole-DCAF11 Pair” (J Med Chem, 2024).

Experiment [1] concerns MDA-MB-468. Nature of the experiment: Antiproliferative activity against human MDA-MB-468 cells assessed as reduction in cell viability incubated for 2 days by CCK8 assay. Conditions: MDA-MB-468, 48 h. The experiment is classed as functional, cell-based.
The test system of experiment [2] is MDA-MB-231. Put plainly: Antiproliferative activity against human MDA-MB-231 cells assessed as reduction in cell viability incubated for 2 days by CCK8 assay. The experiment is classed as functional, cell-based. Conditions: MDA-MB-231, 48 h.
The subject of experiment [3] is HEK293T. Put plainly: Induction of BRD4 BD1 domain (unknown origin) degradation expressed in DCAF11 knockout HEK293T cells assessed as decrease in red fluorescence at 1 uM incubated for 12 hrs by dual fluorescence reporter cell based high content imaging analysis. Conditions: Homo sapiens.
The target in experiment [4] is T1, DCAF11-BRD4 (Homo sapiens, UniProt O60885+Q8TEB1). Nature of the experiment: PROTAC activity at DCAF11/BRD4 BD1 domain (unknown origin) expressed in HEK293T cells assessed as induction of BRD4 degradation at 1 uM incubated for 12 hrs by Dual fluorescence reporter cell high content imaging analysis relative to control. The experiment is classed as cell-based.
Experiment [5] addresses T1, DCAF11-BRD4. Nature of the experiment: PROTAC activity at DCAF11/BRD4 in human MDA-MB-231 cells assessed as induction of BRD4 degradation at 10 to 100 nM incubated for 1 hrs by immunoblot analysis. The experiment is classed as cell-based. The settings on record: dose 10-100 nM.

SMILES strings stand for the structures. pIC50: −log10 of the molar value. Calls of active or inactive are those of the source. The calls are words filed in the database; no cut-off is given here. Bounds are passed on as bounds.

T1 sequence (Q8TEB1 whole entry, looked up, other chains not shown, the tested form may be a part): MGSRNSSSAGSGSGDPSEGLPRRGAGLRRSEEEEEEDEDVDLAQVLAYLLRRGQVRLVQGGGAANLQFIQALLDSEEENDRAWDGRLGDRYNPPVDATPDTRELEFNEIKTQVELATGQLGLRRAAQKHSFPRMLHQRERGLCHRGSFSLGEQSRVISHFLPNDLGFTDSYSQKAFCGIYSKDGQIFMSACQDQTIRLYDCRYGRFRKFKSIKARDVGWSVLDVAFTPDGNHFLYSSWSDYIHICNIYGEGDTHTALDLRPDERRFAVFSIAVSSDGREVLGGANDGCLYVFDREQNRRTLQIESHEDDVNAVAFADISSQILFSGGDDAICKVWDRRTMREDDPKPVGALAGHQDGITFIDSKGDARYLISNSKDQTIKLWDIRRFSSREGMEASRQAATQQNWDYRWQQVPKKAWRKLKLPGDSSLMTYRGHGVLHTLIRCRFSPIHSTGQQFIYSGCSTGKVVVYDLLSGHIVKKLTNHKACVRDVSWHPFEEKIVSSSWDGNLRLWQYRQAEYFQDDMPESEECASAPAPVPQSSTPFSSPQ

As for `Cc1ncsc1-c1ccc(CNC(=O)[C@@H]2C[C@@H](O)CN2C(=O)[C@@H](NC(=O)COCCOCCOCCNC(=O)C[C@@H]2N=C(c3ccc(Cl)cc3)c3c(sc(C)c3C)-n3c(C)nnc32)C(C)(C)C)cc1`, the pIC50 is 5.92 in experiment [1] and 7.70 in experiment [2].
As for `Cc1sc2c(c1C)C(c1ccc(Cl)cc1)=N[C@@H](CC(=O)NCCCOCCOCCOCCCNC(=O)COc1ccc(Br)cc1/C=C1\C(=O)Nc3cc(C(F)(F)F)ccc31)c1nnc(C)n1-2`, the outcome in experiment [3] was inactive.
The same measure, in the same setting: the result for `Cc1sc2c(c1C)C(c1ccc(Cl)cc1)=N[C@@H](CC(=O)NCCCOCCOCCOCCCNC(=O)c1ccsc1/C=C1/C(=O)Nc3cc(C(F)(F)F)ccc31)c1nnc(C)n1-2` reads “inactive”; that for `Cc1sc2c(c1C)C(c1ccc(Cl)cc1)=N[C@@H](CC(=O)NCCCOc1c(Br)cc(Br)c(/C=C3/C(=O)Nc4cc(C(F)(F)F)ccc43)c1Br)c1nnc(C)n1-2`, “inactive”.
Take `Cc1sc2c(c1C)C(c1ccc(Cl)cc1)=N[C@@H](CC(=O)NCCCOc1ccc(Br)cc1/C=C1/C(=O)Nc3cc(C(F)(F)F)ccc31)c1nnc(C)n1-2`: in experiment [3], the result was inactive. Further, in experiment [4], the Activity was above 35%.
Taken in the same sequence, the figures for `Cc1sc2c(c1C)C(c1ccc(Cl)cc1)=N[C@@H](CC(=O)NCCCOc1cccc(/C=C3/C(=O)Nc4cc(C(F)(F)F)ccc43)c1)c1nnc(C)n1-2` were “inactive” and above 35%.
For `Cc1ccc(OCC(=O)NCCCOCCOCCOCCCNC(=O)C[C@@H]2N=C(c3ccc(Cl)cc3)c3c(sc(C)c3C)-n3c(C)nnc32)c(/C=C2\C(=O)Nc3ccc(Br)cc32)c1` (stereo in doubt), the result in experiment [3] was inactive. Further, in experiment [4], the Activity was above 35%.
Take `Cc1ccc(OCC(=O)NCCCOCCOCCOCCCNC(=O)C[C@@H]2N=C(c3ccc(Cl)cc3)c3c(sc(C)c3C)-n3c(C)nnc32)c(/C=C2\C(=O)Nc3ccc(Cl)cc32)c1` (stereo in doubt): in experiment [3], the result was inactive. In addition, the result in experiment [5] was Active. Further, in experiment [4], the Activity is above 35%.
Turning to `Cc1ccc(OCC(=O)NCCCOCCOCCOCCCNC(=O)C[C@@H]2N=C(c3ccc(Cl)cc3)c3c(sc(C)c3C)-n3c(C)nnc32)c(/C=C2\C(=O)Nc3ccc(F)cc32)c1` (stereo in doubt), the outcome in experiment [3] was inactive. In experiment [5], the outcome was Active. Besides, the Activity in experiment [4] is above 35%.
With `Cc1ccc(OCC(=O)NCCOCCOCCOCCOCCNC(=O)C[C@@H]2N=C(c3ccc(Cl)cc3)c3c(sc(C)c3C)-n3c(C)nnc32)c(/C=C2/C(=O)Nc3cc(C(F)(F)F)ccc32)c1` (stereo in doubt), the result in experiment [3] was inactive. Moreover, the Activity in experiment [4] is above 35%.
In the case of `Cc1sc2c(c1C)C(c1ccc(Cl)cc1)=N[C@@H](CC(=O)NCCCOCCOCCOCCCNC(=O)COc1ccc(/C=C3/C(=O)Nc4cc(C(F)(F)F)ccc43)nc1)c1nnc(C)n1-2` (stereo in doubt), in experiment [3], the result was inactive. Also, the result in experiment [5] was Active. In addition, the Activity in experiment [4] is above 35%.
On to `Cc1sc2c(c1C)C(c1ccc(Cl)cc1)=N[C@@H](CC(=O)NCCCOCCOCCOCCCNC(=O)COc1ccc(/C=C3/C(=O)Nc4ccc(Br)cc43)cc1)c1nnc(C)n1-2` (stereo in doubt), for which the result in experiment [3] was inactive. Also, the outcome in experiment [5] was Active. For the same compound, the Activity in experiment [4] is above 35%.
As to `Cc1sc2c(c1C)C(c1ccc(Cl)cc1)=N[C@@H](CC(=O)NCCCOCCOCCOCCCNC(=O)COc1ccc(/C=C3/C(=O)Nc4ccc(Cl)cc43)cc1)c1nnc(C)n1-2` (stereo in doubt), the Activity in experiment [4] was above 35%.
`Cc1sc2c(c1C)C(c1ccc(Cl)cc1)=N[C@@H](CC(=O)NCCCOCCOCCOCCCNC(=O)COc1ccc(/C=C3/C(=O)Nc4ccc(F)cc43)cc1)c1nnc(C)n1-2` (stereo in doubt): the result in experiment [3] was inactive. Further, the Activity in experiment [4] was above 35%.
The matching figures for `Cc1sc2c(c1C)C(c1ccc(Cl)cc1)=N[C@@H](CC(=O)NCCCOc1c(Br)cc(/C=C3/C(=O)Nc4cc(C(F)(F)F)ccc43)cc1Br)c1nnc(C)n1-2` (stereo in doubt): “inactive” and above 35%.
